# From patent publication US20060167109A1, “Methods of reducing rhinovirus contagion and related compositions” (priority 2002, published 2006)
# Experiments:
# Assay in all cases: HRV cytopathic effect assay
# Format in all cases: cell-based
# Conditions in all cases: Human rhinovirus sp.
# [1] = tested on: HRV serotype 28
# Procedure: (§1) For sensitivity testing to pleconaril, the appropriate cells were seeded into 96 well plates at a concentration of 4×10^4/well. After an overnight incubation at 37° C., the medium was removed and the cells were infected with 150 μL of a dilution of virus previously titrated to give ≧85% lysis of the monolayer after 3 days of incubation. The plates were incubated for 1 hour at the appropriate temperature and then overlaid with 50 μL of medium containing serial 2-fold dilutions of pleconaril in 2% DMSO. The final DMSO concentration in the assay was always 0.5%. No virus and no pleconaril controls were included on each plate. All drug concentrations were run in quadruplicate. The plates were then incubated for 3 days at the appropriate temperature followed by processing as described above.
# [2] = tested on: HRV serotype 11
# Procedure: as §1
# [3] = tested on: HRV serotype 73
# Procedure: as §1
# [4] = tested on: HRV serotype 52
# Procedure: as §1
# [5] = tested on: HRV serotype 39
# Procedure: as §1
# [6] = tested on: HRV serotype 81
# Procedure: as §1
# [7] = tested on: HRV serotype 38
# Procedure: as §1
# [8] = tested on: HRV serotype 64
# Procedure: as §1
# [9] = tested on: HRV serotype 71
# Procedure: as §1
# [10] = tested on: HRV serotype 32
# Procedure: as §1
# [11] = tested on: HRV serotype 80
# Procedure: as §1
# [12] = tested on: HRV serotype 1B
# Procedure: as §1
# [13] = tested on: HRV serotype 60
# Procedure: as §1
# [14] = tested on: HRV serotype 36
# Procedure: as §1
# [15] = tested on: HRV serotype 22
# Procedure: as §1
# [16] = tested on: HRV serotype 26
# Procedure: as §1
# [17] = tested on: HRV serotype 1A
# Procedure: as §1
# [18] = tested on: HRV serotype 35
# Procedure: as §1
# [19] = tested on: HRV serotype 20
# Procedure: as §1
# [20] = tested on: HRV serotype 5
# Procedure: as §1
# [21] = tested on: HRV serotype 100
# Procedure: as §1
# [22] = tested on: HRV serotype 99
# Procedure: as §1
# [23] = tested on: HRV serotype 15
# Procedure: as §1
# [24] = tested on: HRV serotype 31
# Procedure: as §1
# [25] = tested on: HRV serotype 90
# Procedure: as §1
# [26] = tested on: HRV serotype 27
# Procedure: as §1
# [27] = tested on: HRV serotype 92
# Procedure: as §1
# [28] = tested on: HRV serotype 43
# Procedure: as §1
# [29] = tested on: HRV serotype 58
# Procedure: as §1
# [30] = tested on: HRV serotype 3
# Procedure: as §1
# [31] = tested on: HRV serotype 89
# Procedure: as §1
# [32] = tested on: HRV serotype 24
# Procedure: as §1
# [33] = tested on: HRV serotype 14
# Procedure: as §1
# [34] = tested on: HRV serotype 83
# Procedure: as §1
# [35] = tested on: HRV serotype 30
# Procedure: as §1
# [36] = tested on: HRV serotype 84
# Procedure: as §1
# [37] = tested on: HRV serotype 63
# Procedure: as §1
# [38] = tested on: HRV serotype 56
# Procedure: as §1
# [39] = tested on: HRV serotype 61
# Procedure: as §1
# [40] = tested on: HRV serotype 13
# Procedure: as §1
# [41] = tested on: HRV serotype 55
# Procedure: as §1
smiles,measurement,setting,value
"Cc1cc(CCCOc2c(C)cc(-c3noc(C(F)(F)F)n3)cc2C)on1 [pleconaril, 3-[3,5-dimethyl-4-[3-(3-methyl-5-isoxazolyl)propoxy]phenyl]-5-(trifluoromethyl)-1,2,4-oxadiazole]",IC50,[1],200 ± 70 nM
same,IC50,[2],150 ± 40 nM
same,IC50,[3],210 ± 90 nM
same,IC50,[4],2490 ± 1210 nM
same,IC50,[5],10 nM
same,IC50,[6],300 ± 70 nM
same,IC50,[7],100 ± 40 nM
same,IC50,[8],320 ± 240 nM
same,IC50,[9],20 ± 10 nM
same,IC50,[10],330 ± 130 nM
same,IC50,[11],170 ± 30 nM
same,IC50,[12],160 ± 30 nM
same,IC50,[13],480 ± 140 nM
same,IC50,[14],110 ± 20 nM
same,IC50,[15],40 ± 20 nM
same,IC50,[16],1600 ± 600 nM
same,IC50,"[17]; HRV1A, Table 2, mean of at least two independent determinations",430 ± 170 nM
same,IC50,[17]; serotype 1A,430 ± 170 nM
same,IC50,[18],40 ± 10 nM
same,IC50,[19],60 nM
same,IC50,[20],> 12500 nM
same,IC50,[21],30 ± 10 nM
same,IC50,[22],> 12500 nM
same,IC50,[23],590 ± 290 nM
same,IC50,[24],130 ± 70 nM
same,IC50,[25],190 ± 60 nM
same,IC50,[26],5900 ± 1900 nM
same,IC50,[27],20 ± 10 nM
same,IC50,[28],230 ± 110 nM
same,IC50,[29],40 ± 30 nM
same,IC50,"[30]; HRV3, Table 2, mean of at least two independent determinations",90 ± 40 nM
same,IC50,[30]; serotype 3,90 ± 40 nM
same,IC50,"[31]; HRV89, Table 2, mean of at least two independent determinations",50 ± 10 nM
same,IC50,[31]; serotype 89,50 ± 10 nM
same,IC50,[32],210 ± 20 nM
same,IC50,"[33]; HRV14, Table 2, mean of at least two independent determinations",160 ± 90 nM
same,IC50,[33]; serotype 14,160 ± 90 nM
same,IC50,[34],20 ± 10 nM
same,IC50,[35],230 ± 80 nM
same,IC50,[36],> 12500 nM
same,IC50,[37],160 ± 80 nM
same,IC50,[38],110 ± 60 nM
same,IC50,[39],210 ± 80 nM
same,IC50,[40],580 ± 130 nM
same,IC50,[41],20 ± 20 nM
